The numbers were not newly measured in patent EP4568488B1, “VEGETABLE- AND/OR FRUIT-CONTAINING SNACK FOOD PRODUCTS AND MANUFACTURE THEREOF” (PepsiCo International Limited, priority 2022, dated 2024), which cites them from elsewhere.

Like-named read-outs stand apart in the source and are kept apart here.

As to `CC1=C(/C=C/C(C)=C/C=C/C(C)=C/C=C/C=C(C)/C=C/C=C(C)/C=C/C2=C(C)CCCC2(C)C)C(C)(C)CCC1` [β-carotene], the “half-life time of β-carotene” value is reported as 3.02 ± 0.04 h (convective hot-air drying of carrot slices at 45°C) and 1.43 ± 0.03 h (convective hot-air drying of carrot slices at 65°C).
